Earlier results in US10137135B2, “Formulations and methods for providing progestin-only contraception while minimizing adverse side effects associated therewith” (Allergan Sales, LLC, priority 2005, dated 2018).

System: ovulation
Conditions: subdermal implants of NEA

Structure (SMILES): C#C[C@]1(OC(C)=O)CC[C@H]2[C@@H]3CCC4=CC(=O)CC[C@@H]4[C@H]3CC[C@@]21C [NEA, norethindrone acetate]
- NE levels thought to be required to consistently inhibit ovulation: 600 pg/mL
